Test results as given in patent US10844062B2, “Pyridine derivative inhibiting RAF kinase and vascular endothelial growth factor receptor, method for preparing same, pharmaceutical composition containing same, and use thereof” (SAMJIN PHARMACEUTICAL CO., LTD., priority 2016, dated 2020).

Test system: LS513 KRAS G12V (colon)
Experiment: MTT assay
Format: cell-based
Details: Homo sapiens, LS-513, 72 h, Table 4; 3 days incubation; read-out: MTT assay IC50 KRAS mutant (Colon) LS513 KRAS G12V
Experimental: MTT assay is frequently used for the purpose of primary screening for the sensitivity of anticancer agents and to examine cytotoxicity. When cancer cells are treated with varying concentrations of any anticancer agent for a predetermined time to induce death of the cells and are then treated with MTT, and when the formation of formazan is measured, the concentration of the anticancer agent, at which about 50% of the cells survive, can be determined. This concentration value is called IC50. IC50 values differ between drugs, and thus can be characteristic of the drugs. Using this method, the effects of anticancer agents against cell proliferation can be quantitatively compared. Thus, in order to measure the cytotoxicity of samples, MTT assay was performed using CellTiter 96 Non-radioactive Cell Proliferation Assay Kit (Promega).
Cells in a cell suspension were counted with a hematocytometer, and then 200 μL of the cell suspension was added to each well of a 96 well plate at a desired concentration (cell amount determined depending on a cell line). After cell seeding, the cells were incubated in a CO2 incubator at 37° C. overnight. After one day of cell stabilization, the cells were treated with desired concentrations of the compounds. The cells were incubated in a CO2 incubator at 37° C. for 3 days, and then the sample was removed, and 200 μL of MTT solution was added to each well. After 2 hours of incubation, the MTT dilution was carefully shaken, and 200 μL of DMSO was added to each well, followed by shaking with a plate shaker for 60 minutes.

Structure (SMILES)	IC50
Cc1cn(-c2cc(C(=O)Nc3ccc(F)c(Nc4ncccc4-c4ncnc5[nH]cnc45)c3F)cc(C(F)(F)F)c2)cn1 [Example 2, N-(3-(3-(9H-purin-6-yl)pyridin-2-ylamino)-2,4-difluorophenyl)-3-(4-methyl-1H-imidazol-1-yl)-5-(trifluoromethyl)benzamide]	> 10000 nM
CCN1CCN(Cc2ccc(C(=O)Nc3ccc(F)c(Nc4ncccc4-c4ncnc5[nH]cnc45)c3F)cc2C(F)(F)F)CC1 [Example 3, N-(3-(3-(9H-purin-6-yl)pyridin-2-ylamino)-2,4-difluorophenyl)-4-((4-ethylpiperazin-1-yl)methyl)-3-(trifluoromethyl)benzamide]	4030 nM
CC(C)C(=O)Nc1ccc(F)c(Nc2ncccc2-c2ncnc3[nH]cnc23)c1F [Example 4, N-(3-(3-(9H-purin-6-yl)pyridin-2-ylamino)-2,4-difluorophenyl)isobutylamide]	> 10000 nM
O=C(Nc1ccc(F)c(Nc2ncccc2-c2ncnc3[nH]cnc23)c1F)c1cccs1 [Example 5, N-(3-(3-(9H-purin-6-yl)pyridin-2-ylamino)-2,4-difluorophenyl)thiophene-2-carboxamide]	> 10000 nM
O=C(Nc1ccc(F)c(Nc2ncccc2-c2ncnc3[nH]cnc23)c1F)c1ccco1 [Example 6, N-(3-(3-(9H-purin-6-yl)pyridine-2-ylamino)-2,4-difluorophenyl)furan-2-carboxamide]	> 10000 nM
O=C(Nc1ccc(F)c(Nc2ncccc2-c2ncnc3[nH]cnc23)c1F)c1ccno1 [Example 7, N-(3-(3-(9H-purin-6-yl)pyridin-2-ylamino)-2,4-difluorophenyl)isoxazole-5-carboxamide]	> 10000 nM
O=C(Nc1ccc(F)c(Nc2ncccc2-c2ncnc3[nH]cnc23)c1F)c1cncs1 [Example 8, N-(3-(3-(9H-purin-6-yl)pyridin-2-ylamino)-2,4-difluorophenyl)thiazole-5-carboxamide]	> 10000 nM
CN1CCN(c2cc(C(=O)Nc3ccc(F)c(Nc4ncccc4-c4ncnc5[nH]cnc45)c3F)cc(C(F)(F)F)c2)CC1 [Example 10, N-(3-(3-(9H-purin-6-yl)pyridin-2-ylamino)-2,4-difluorophenyl)-3-(4-methylpiperazin-1-yl)-5-(trifluoromethyl)benzamide]	1170 nM
O=C(Nc1ccc(F)c(Nc2ncccc2-c2ncnc3[nH]cnc23)c1F)c1cc(N2CCSCC2)cc(C(F)(F)F)c1 [Example 11, N-(3-(3-(9H-purin-6-yl)pyridin-2-ylamino)-2,4-difluorophenyl)-3-thiomorpholino-5-(trifluoromethyl)benzamide]	996 nM
O=C(Nc1ccc(F)c(Nc2ncccc2-c2ncnc3[nH]cnc23)c1F)c1cc(N2CCC(O)CC2)cc(C(F)(F)F)c1 [Example 12, N-(3-(3-(9H-purin-6-yl)pyridin-2-ylamino)-2,4-difluorophenyl)-3-(4-hydroxypiperidin-1-yl)-5-(trifluoromethyl)benzamide]	1020 nM
CC1CCN(c2cc(C(=O)Nc3ccc(F)c(Nc4ncccc4-c4ncnc5[nH]cnc45)c3F)cc(C(F)(F)F)c2)CC1 [Example 13, N-(3-(3-(9H-purin-6-yl)pyridin-2-ylamino)-2,4-difluorophenyl)-3-(4-methylpiperidin-1-yl)-5-(trifluoromethyl)benzamide]	1150 nM
O=C(Nc1ccc(F)c(Nc2ncccc2-c2ncnc3[nH]cnc23)c1F)c1ccc(N2CCSCC2)c(C(F)(F)F)c1 [Example 14, N-(3-(3-(9H-purin-6-yl)pyridin-2-ylamino)-2,4-difluorophenyl)-4-thiomorpholino-3-(trifluoromethyl)benzamide]	851 nM
CC1CCN(c2ccc(C(=O)Nc3ccc(F)c(Nc4ncccc4-c4ncnc5[nH]cnc45)c3F)cc2C(F)(F)F)CC1 [Example 15, N-(3-(3-(9H-purin-6-yl)pyridin-2-ylamino)-2,4-difluorophenyl)-4-(4-methylpeperidin-1-yl)-3-(trifluoromethyl)benzamide]	1670 nM
O=C(Nc1ccc(F)c(Nc2ncccc2-c2ncnc3[nH]cnc23)c1F)c1ccc(Cl)c(C(F)(F)F)c1 [Example 16, N-(3-(3-(9H-purin-6-yl)pyridin-2-ylamino)-2,4-difluorophenyl)-4-chloro-3-(trifluoromethyl)benzamide]	2780 nM
O=C(Nc1ccc(F)c(Nc2ncccc2-c2ncnc3[nH]cnc23)c1F)c1ccc2c(c1)OCCO2 [Example 17, N-(3-(3-(9H-purin-6-yl)pyridin-2-ylamino)-2,4-difluorophenyl)-2,3-dihydrobenzo[b][1,4]dioxine-6-carboxamide]	1160 nM
O=C(Nc1ccc(F)c(Nc2ncccc2-c2ncnc3[nH]cnc23)c1F)c1cc(N2CCOCC2)cc(C(F)(F)F)c1 [Example 18, N-(3-(3-(9H-purin-6-yl)pyridin-2-ylamino)-2,4-difluorophenyl)-3-morpholino-5-(trifluoromethyl)benzamide]	3020 nM

Structure (SMILES)	IC50
O=C(Nc1ccc(F)c(Nc2ncccc2-c2ncnc3[nH]cnc23)c1F)c1ccc(N2CCCC2)c(C(F)(F)F)c1 [Example 19, N-(3-(3-(9H-purin-6-yl)pyridin-2-ylamino)-2,4-difluorophenyl)-4-(pyrrolidin-1-yl)-3-(trifluoromethyl)benzamide]	939 nM
N#CC1(c2cccc(C(=O)Nc3ccc(F)c(Nc4ncccc4-c4ncnc5[nH]cnc45)c3F)c2)CC1 [Example 20, N-(3-(3-(9H-purin-6-yl)pyridin-2-ylamino)-2,4-difluorophenyl)-3-(1-cyanocyclopropyl)benzamide]	2600 nM
CC(C)(C(N)=O)c1cccc(C(=O)Nc2ccc(F)c(Nc3ncccc3-c3ncnc4[nH]cnc34)c2F)c1 [Example 22, N-(3-(3-(9H-purin-6-yl)pyridin-2-ylamino)-2,4-difluorophenyl)-3-(1-amino-2-methyl-1-oxopropan-2-yl)benzamide]	> 10000 nM
CC(C)(C#N)c1cccc(C(=O)Nc2cc(Nc3ncccc3-c3ncnc4[nH]cnc34)ccc2Cl)c1 [Example 24, N-(5-(3-(9H-purin-6-yl)pyridin-2-ylamino)-2-chlorophenyl)-3-(2-cyanopropan-2-yl)benzamide]	476 nM
CC(C)(C#N)c1cccc(C(=O)Nc2c(F)ccc(Nc3ncccc3-c3ncnc4[nH]cnc34)c2F)c1 [Example 25, N-(3-(3-(9H-purin-6-yl)pyridin-2-ylamino)-2,6-difluorophenyl)-3-(2-cyanopropan-2-yl)benzamide]	> 10000 nM
O=C(Nc1ccc(F)c(Nc2ncccc2-c2ncnc3[nH]cnc23)c1F)c1ccccc1C(F)(F)F [Example 26, N-(3-(3-(9H-purin-6-yl)pyridin-2-ylamino)-2,4-difluorophenyl)-2-(trifluoromethyl)benzamide]	> 10000 nM
O=C(Nc1ccc(F)c(Nc2ncccc2-c2ncnc3[nH]cnc23)c1F)c1ccc(C(F)(F)F)cc1 [Example 27, N-(3-(3-(9H-purin-6-yl)pyridin-2-ylamino)-2,4-difluorophenyl)-4-(trifluoromethyl)benzamide]	> 10000 nM
O=C(Nc1ccc(F)c(Nc2ncccc2-c2ncnc3[nH]cnc23)c1F)c1cc(F)cc(C(F)(F)F)c1 [Example 28, N-(3-(3-(9H-purin-6-yl)pyridin-2-ylamino)-2,4-difluorophenyl)-3-fluoro-5-(trifluoromethyl)benzamide]	958 nM
CC(C)(C#N)c1cccc(C(=O)Nc2cccc(Nc3ncccc3-c3ncnc4[nH]cnc34)c2F)c1 [Example 29, N-(3-(3-(9H-purin-6-yl)pyridin-2-ylamino)-2-fluorophenyl)-3-(2-cyanopropan-2-yl)benzamide]	978 nM
O=C(Nc1cc(Nc2ncccc2-c2ncnc3[nH]cnc23)c(F)cc1F)c1cccc(C(F)(F)F)c1 [Example 31, N-(5-(3-(9H-Purin-6-Yl)Pyridin-2-Ylamino)-2,4-Difluorophenyl)-3-(Trifluoromethyl)Benzamide]	> 10000 nM
CC(C)(C#N)c1cccc(C(=O)Nc2cc(Nc3ncccc3-c3ncnc4[nH]cnc34)c(F)cc2F)c1 [Example 32, N-(5-(3-(9H-Purin-6-Yl)Pyridin-2-Ylamino)-2,4-Difluorophenyl)-3-(2-Cyanopropan-2-Yl)Benzamide]	173 nM
O=C(Nc1ccc(F)c(Nc2ncccc2-c2ncnc3[nH]cnc23)c1F)c1cccc([N+](=O)[O-])c1 [Example 34, N-(3-(3-(9H-Purin-6-Yl)Pyridin-2-Ylamino)-2,4-Difluorophenyl)-3-Nitrobenzamide]	> 10000 nM
COc1cccc(C(=O)Nc2ccc(F)c(Nc3ncccc3-c3ncnc4[nH]cnc34)c2F)c1 [Example 35, N-(3-(3-(9H-Purin-6-Yl)Pyridin-2-Ylamino)-2,4-Difluorophenyl)-3-Methoxybenzamide]	> 10000 nM
N#Cc1cccc(C(=O)Nc2ccc(F)c(Nc3ncccc3-c3ncnc4[nH]cnc34)c2F)c1 [Example 37, N-(3-(3-(9H-Purin-6-Yl)Pyridin-2-Ylamino)-2,4-Difluorophenyl)-3-Cyanobenzamide]	> 10000 nM
COc1ccc(C(=O)Nc2ccc(F)c(Nc3ncccc3-c3ncnc4[nH]cnc34)c2F)cc1C(F)(F)F [Example 38, N-(3-(3-(9H-Purin-6-Yl)Pyridin-2-Ylamino)-2,4-Difluorophenyl)-4-Methoxy-3-(Trifluoromethyl)Benzamide]	1860 nM
